Measured values: ChEMBL document CHEMBL1136099, “Heterocyclic thrombin inhibitors. Part 1: design and synthesis of amidino-phenoxy quinoline derivatives” (Bioorg Med Chem Lett, 2003)

What was measured:
Prothrombin = Prothrombin (Homo sapiens, UniProt P00734); assay: In vitro inhibitory activity against thrombin in human plasma; format: cell-free
Serine protease 1 = Serine protease 1 (Homo sapiens, UniProt P07477); assay: Inhibitory activity against trypsin
Plasminogen = Plasminogen (Homo sapiens, UniProt P00747); assay: Inhibitory activity against plasmin in human plasma
Plasminogen, sequence (P00747 97-580 limits assumed): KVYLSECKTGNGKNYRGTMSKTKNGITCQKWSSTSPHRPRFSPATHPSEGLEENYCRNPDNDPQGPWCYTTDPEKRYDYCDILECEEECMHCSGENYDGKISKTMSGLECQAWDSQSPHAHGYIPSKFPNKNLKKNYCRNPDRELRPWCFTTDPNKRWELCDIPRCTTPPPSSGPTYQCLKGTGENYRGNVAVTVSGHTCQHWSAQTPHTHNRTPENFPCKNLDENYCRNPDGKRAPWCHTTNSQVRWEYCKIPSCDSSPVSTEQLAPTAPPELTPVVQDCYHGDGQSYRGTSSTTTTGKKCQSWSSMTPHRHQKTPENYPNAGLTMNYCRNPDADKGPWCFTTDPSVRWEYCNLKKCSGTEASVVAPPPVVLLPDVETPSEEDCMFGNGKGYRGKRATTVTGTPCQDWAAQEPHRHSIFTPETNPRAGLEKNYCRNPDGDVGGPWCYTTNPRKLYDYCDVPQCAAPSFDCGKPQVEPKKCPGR
Plasminogen, sequence (P00747 581-810 limits assumed): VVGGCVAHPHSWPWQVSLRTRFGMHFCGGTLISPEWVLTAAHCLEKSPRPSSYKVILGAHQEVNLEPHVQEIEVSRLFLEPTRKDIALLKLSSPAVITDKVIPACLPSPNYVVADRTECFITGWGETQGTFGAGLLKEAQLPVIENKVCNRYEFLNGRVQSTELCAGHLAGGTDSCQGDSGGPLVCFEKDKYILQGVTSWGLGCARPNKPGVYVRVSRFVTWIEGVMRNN

Homo sapiens = organism: Homo sapiens; assay: Effective dose (in vitro) using activated partial thromboplastin time (aPTT); format: functional
[1] = Partition coefficient (logP); format: physicochemical; conditions: octanol/water
Coagulation factor X = Coagulation factor X (Homo sapiens, UniProt P00742); assay: Inhibitory activity against coagulation factor X in human plasma; format: cell-free
Coagulation factor X, sequence (P00742 41-179 limits assumed): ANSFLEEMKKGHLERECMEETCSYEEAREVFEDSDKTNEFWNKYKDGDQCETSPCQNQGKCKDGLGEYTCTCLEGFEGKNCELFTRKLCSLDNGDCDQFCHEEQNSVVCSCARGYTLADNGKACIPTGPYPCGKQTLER
Coagulation factor X, sequence (P00742 235-488 limits assumed): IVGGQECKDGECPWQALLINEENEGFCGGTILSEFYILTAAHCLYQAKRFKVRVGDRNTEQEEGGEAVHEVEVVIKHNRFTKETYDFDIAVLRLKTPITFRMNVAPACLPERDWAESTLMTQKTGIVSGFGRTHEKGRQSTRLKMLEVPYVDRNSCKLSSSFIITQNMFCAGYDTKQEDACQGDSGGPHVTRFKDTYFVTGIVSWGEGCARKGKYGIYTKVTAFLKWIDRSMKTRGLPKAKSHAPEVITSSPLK

Serine protease 1, sequence (P07477 whole entry): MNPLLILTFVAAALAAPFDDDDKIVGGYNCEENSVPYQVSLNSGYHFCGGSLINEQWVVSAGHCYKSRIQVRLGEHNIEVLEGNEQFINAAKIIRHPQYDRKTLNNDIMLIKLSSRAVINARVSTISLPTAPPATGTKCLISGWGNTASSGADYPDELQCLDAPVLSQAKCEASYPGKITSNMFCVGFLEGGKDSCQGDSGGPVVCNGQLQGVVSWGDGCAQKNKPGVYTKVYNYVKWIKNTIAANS

| Structure (SMILES) | IC50 (Prothrombin) | IC50 (Serine protease 1) | IC50 (Plasminogen) | ED200 (Homo sapiens) | logP [1] | IC50 (Coagulation factor X) |
| --- | --- | --- | --- | --- | --- | --- |
| Cc1cc(Nc2ccc(C(=N)N)cc2)nc2cc(Br)ccc12 | 87 nM | – | – | – | – | – |
| Cc1cc(Oc2ccc(C(=N)N)cc2)nc2cc(Br)ccc12 | 66 nM | – | – | – | – | – |
| Cc1ccc(-c2ccc3c(C)cc(Oc4ccc(C(=N)N)cc4)nc3c2)cc1 | 18 nM | 4200 nM | 12200 nM | – | – | – |
| C/C(=C\C(=O)O)c1ccc2c(C)cc(Oc3ccc(C(=N)N)cc3)nc2c1 | 600 nM | 8100 nM | 25000 nM | – | – | – |
| CCOC(=O)Cc1ccc2c(C)cc(Oc3ccc(C(=N)N)cc3)nc2c1 | 92 nM | – | – | – | – | – |
| Cc1ccccc1-c1ccc2c(C)cc(Oc3ccc(C(=N)N)cc3)nc2c1 | 6 nM | 2900 nM | 8300 nM | 7.9 µM | > 3.5 | – |
| Cc1ccccc1-c1ccc2c(C)cc(Nc3ccc(C(=N)N)cc3)nc2c1 | 37 nM | 3500 nM | 14800 nM | – | – | – |
| CCOC(=O)C(C)(C)c1ccc2c(C)cc(Oc3ccc(C(=N)N)cc3)nc2c1 | 6 nM | 2400 nM | 20000 nM | – | – | – |
| Cc1cc(Sc2ccc(C(=N)N)cc2)nc2cc(Br)ccc12 | 196 nM | – | – | – | – | – |
| Cc1ccc(C(=O)NCC(=O)O)cc1-c1ccc2c(C)cc(Oc3ccc(C(=N)N)cc3)nc2c1 | 8 nM | – | – | 0.9 µM | 0.5 | – |
| CCOC(=O)/C=C(\C)c1ccc2c(C)cc(Oc3ccc(C(=N)N)cc3)nc2c1 | 16 nM | 6700 nM | 6400 nM | – | – | – |
| CCOC(=O)CNC(=O)c1ccc(C)c(-c2ccc3c(C)cc(Oc4ccc(C(=N)N)cc4)nc3c2)c1 | 10 nM | – | – | 3.3 µM | 1.3 | – |
| CCOC(=O)C(CC)c1ccc2c(C)cc(Oc3ccc(C(=N)N)cc3)nc2c1 (stereo not given) | 10 nM | – | – | – | – | – |
| CCOC(=O)C1(c2ccc3c(C)cc(Oc4ccc(C(=N)N)cc4)nc3c2)CCCC1 | 3 nM | 560 nM | 5800 nM | – | – | 1500 nM |
